Assay results from paper PMC3053401, “Renal Effects of the Novel Selective Adenosine A1 Receptor Blocker SLV329 in Experimental Liver Cirrhosis in Rats” (PLoS ONE, 2011).

Key:
[1] = target: T1, Phosphodiesterase 4 rolipram binding; assay: radioligand displacement, filtration, Cheng-Prusoff; details: [3H]rolipram; total brain; high-affinity rolipram-binding site
T1 construct: gene Pde4a; provided by Cerep
From the text: radioligand displacement, filtration, Cheng-Prusoff on Phosphodiesterase 4 rolipram binding

Adenosine A2A receptor = target: T2, Adenosine A2A receptor (Homo sapiens, UniProt P29274); assay: as above; assay type: binding; details: [3H]CGS21680; receptor preparation from HEK293 cells
T2 construct: gene ADORA2A; cloned human receptor in HEK293 cells; cells provided by Cerep
T2 sequence (P29274 whole entry): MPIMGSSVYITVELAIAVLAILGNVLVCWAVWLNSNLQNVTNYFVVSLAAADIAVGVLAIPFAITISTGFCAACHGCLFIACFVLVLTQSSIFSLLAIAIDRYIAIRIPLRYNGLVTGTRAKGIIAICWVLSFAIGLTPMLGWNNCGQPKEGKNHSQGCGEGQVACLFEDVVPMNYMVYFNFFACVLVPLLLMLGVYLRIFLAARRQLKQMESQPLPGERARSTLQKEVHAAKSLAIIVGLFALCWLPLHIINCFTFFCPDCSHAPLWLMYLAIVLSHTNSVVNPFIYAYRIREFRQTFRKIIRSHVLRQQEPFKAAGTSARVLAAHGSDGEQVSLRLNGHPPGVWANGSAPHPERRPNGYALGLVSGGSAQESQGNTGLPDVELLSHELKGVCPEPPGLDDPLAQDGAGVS
From the text: radioligand displacement, filtration, Cheng-Prusoff on Adenosine A2A receptor

[2] = target: T3, Phosphodiesterase 4 enzyme; assay: radiometric enzyme inhibition assay, scintillation counting; assay type: biochemical; details: [3H]cAMP substrate; enzyme preparation from U-937 cells
T3 construct: gene PDE4A; native enzyme preparation from U-937 cells; provided by Cerep
From the text: radiometric enzyme inhibition assay, scintillation counting on Phosphodiesterase 4 enzyme

Adenosine A3 receptor = target: T4, Adenosine A3 receptor (Homo sapiens, UniProt P0DMS8); assay: radioligand displacement, filtration, Cheng-Prusoff; assay type: binding; details: [3H]AB-MECA; receptor preparation from HEK293 cells
T4 construct: gene ADORA3; cloned human receptor in HEK293 cells; cells provided by Cerep
T4 sequence (P0DMS8 1-318): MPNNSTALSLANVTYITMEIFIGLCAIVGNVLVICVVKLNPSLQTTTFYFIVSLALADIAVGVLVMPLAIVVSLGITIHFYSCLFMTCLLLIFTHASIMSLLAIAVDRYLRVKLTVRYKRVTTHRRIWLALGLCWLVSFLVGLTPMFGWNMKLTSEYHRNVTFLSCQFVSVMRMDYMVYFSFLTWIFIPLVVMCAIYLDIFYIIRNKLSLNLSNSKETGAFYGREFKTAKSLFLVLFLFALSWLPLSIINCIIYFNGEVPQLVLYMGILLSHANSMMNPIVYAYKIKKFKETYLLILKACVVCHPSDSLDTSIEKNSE
From the text: radioligand displacement, filtration, Cheng-Prusoff on Adenosine A3 receptor

[3] = target: T5, Adenosine A1 receptor (A1R) (Homo sapiens, UniProt P30542); assay: as above; assay type: binding; details: [3H]DPCPX; receptor preparation from CHO cells; antagonist
T5 construct: gene ADORA1; cloned human receptor in CHO cells; cells provided by Cerep
T5 sequence (P30542 1-326): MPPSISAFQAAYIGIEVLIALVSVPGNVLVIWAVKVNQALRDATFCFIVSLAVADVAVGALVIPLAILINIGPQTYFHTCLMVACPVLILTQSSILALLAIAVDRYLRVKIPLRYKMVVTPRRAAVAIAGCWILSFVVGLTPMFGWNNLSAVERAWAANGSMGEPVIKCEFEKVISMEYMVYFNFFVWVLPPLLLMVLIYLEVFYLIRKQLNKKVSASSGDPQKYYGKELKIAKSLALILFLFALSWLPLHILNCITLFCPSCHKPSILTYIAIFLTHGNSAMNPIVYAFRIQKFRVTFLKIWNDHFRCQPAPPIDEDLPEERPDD
From the text: radioligand displacement, filtration, Cheng-Prusoff on Adenosine A1 receptor (A1R)

Adenosine A2B receptor = target: T6, Adenosine A2B receptor (Homo sapiens, UniProt P29275); assay: as above; assay type: binding; details: [3H]DPCPX; receptor preparation from HEK293 cells
T6 construct: gene ADORA2B; cloned human receptor in HEK293 cells; cells provided by Cerep
T6 sequence (P29275 1-332): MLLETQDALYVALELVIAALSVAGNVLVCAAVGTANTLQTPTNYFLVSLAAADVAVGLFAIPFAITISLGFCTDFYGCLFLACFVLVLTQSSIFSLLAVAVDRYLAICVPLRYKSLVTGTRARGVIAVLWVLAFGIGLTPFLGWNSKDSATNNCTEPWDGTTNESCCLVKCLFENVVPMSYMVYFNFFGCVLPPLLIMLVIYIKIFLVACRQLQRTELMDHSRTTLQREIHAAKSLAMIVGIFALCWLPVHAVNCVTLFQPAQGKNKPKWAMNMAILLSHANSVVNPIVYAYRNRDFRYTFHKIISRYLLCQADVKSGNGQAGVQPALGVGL
From the text: radioligand displacement, filtration, Cheng-Prusoff on Adenosine A2B receptor

SLV329 Affinity [1]: 6.1±0.2
SLV329 Affinity (Adenosine A2A receptor): 7.2±0.2
SLV329 Affinity [2]: 5.4±0.1
SLV329 Affinity (Adenosine A3 receptor): 6.9±0.1
SLV329 Affinity [3]: 9.2±0.2
SLV329 Affinity (Adenosine A2B receptor): 6.3±0.1
Substance: SLV329
